From ChEMBL document CHEMBL3994622, “Design and synthesis of new RAF kinase-inhibiting antiproliferative quinoline derivatives. Part 2: Diarylurea derivatives” (Eur J Med Chem, 2017)

Columns and labels:
[1] = tested on: RPMI-8226; experiment: Growth inhibition of human RPMI8226 cells incubated for 48 hrs by sulforhodamine B assay; format: functional; details: RPMI-8226, 48 h
[2] = tested on: A549; experiment: Growth inhibition of human A549/ATCC cells incubated for 48 hrs by sulforhodamine B assay; format: functional; details: A549, 48 h; for CC50: read-out: LC50 (the source's name)
[3] = tested on: HCT-116; experiment: Growth inhibition of human HCT116 cells incubated for 48 hrs by sulforhodamine B assay; format: functional; details: HCT-116, 48 h
[4] = tested on: SF-268; experiment: Growth inhibition of human SF268 cells incubated for 48 hrs by sulforhodamine B assay; format: functional; details: SF-268, 48 h
[5] = tested on: SF-295; experiment: Growth inhibition of human SF295 cells incubated for 48 hrs by sulforhodamine B assay; format: functional; details: SF-295, 48 h; for CC50: read-out: LC50 (the source's name)
[6] = tested on: SNB-19; experiment: Growth inhibition of human SNB19 cells incubated for 48 hrs by sulforhodamine B assay; format: functional; details: SNB-19, 48 h; for CC50: read-out: LC50 (the source's name)
[7] = tested on: U-251; experiment: Growth inhibition of human U251 cells incubated for 48 hrs by sulforhodamine B assay; format: functional; details: U-251, 48 h; for CC50: read-out: LC50 (the source's name)
[8] = tested on: Malme-3M; experiment: Growth inhibition of human MALME-3M cells incubated for 48 hrs by sulforhodamine B assay; format: functional; details: for CC50: read-out: LC50 (the source's name)
[9] = tested on: SK-MEL-28; experiment: Growth inhibition of human SK-MEL-28 cells incubated for 48 hrs by sulforhodamine B assay; format: functional; details: SK-MEL-28, 48 h; for CC50: read-out: LC50 (the source's name)
[10] = tested on: SK-MEL-5; experiment: Growth inhibition of human SK-MEL-5 cells incubated for 48 hrs by sulforhodamine B assay; format: functional; details: SK-MEL-5, 48 h; for CC50: read-out: LC50 (the source's name)
[11] = tested on: UACC-257; experiment: Growth inhibition of human UACC257 cells incubated for 48 hrs by sulforhodamine B assay; format: functional; details: UACC-257, 48 h; for CC50: read-out: LC50 (the source's name)
[12] = tested on: OVCAR-3; experiment: Growth inhibition of human OVCAR3 cells incubated for 48 hrs by sulforhodamine B assay; format: functional; details: OVCAR-3, 48 h; for CC50: read-out: LC50 (the source's name)
[13] = tested on: OVCAR-5; experiment: Growth inhibition of human OVCAR5 cells incubated for 48 hrs by sulforhodamine B assay; format: functional; details: OVCAR-5, 48 h; for CC50: read-out: LC50 (the source's name)
[14] = tested on: NCI/ADR-RES; experiment: Growth inhibition of human NCI/ADR-RES cells incubated for 48 hrs by sulforhodamine B assay; format: functional; details: for CC50: read-out: LC50 (the source's name)
[15] = tested on: SK-OV-3; experiment: Growth inhibition of human SKOV3 cells incubated for 48 hrs by sulforhodamine B assay; format: functional; details: SK-OV-3, 48 h; for CC50: read-out: LC50 (the source's name)
[16] = tested on: CAKI-1; experiment: Growth inhibition of human Caki1 cells incubated for 48 hrs by sulforhodamine B assay; format: functional; details: CAKI-1, 48 h; for CC50: read-out: LC50 (the source's name)
[17] = tested on: DU-145; experiment: Growth inhibition of human DU145 cells incubated for 48 hrs by sulforhodamine B assay; format: functional; details: DU-145, 48 h; for CC50: read-out: LC50 (the source's name)
[18] = tested on: MCF7; experiment: Growth inhibition of human MCF7 cells incubated for 48 hrs by sulforhodamine B assay; format: functional; details: MCF7, 48 h; for CC50: read-out: LC50 (the source's name)
[19] = tested on: MDA-MB-231; experiment: Growth inhibition of human MDA-MB-231 cells incubated for 48 hrs by sulforhodamine B assay; format: functional; details: MDA-MB-231, 48 h; for CC50: read-out: LC50 (the source's name)
[20] = tested on: Hs-578T; experiment: Growth inhibition of human Hs 578T cells incubated for 48 hrs by sulforhodamine B assay; format: functional; details: for CC50: read-out: LC50 (the source's name)
[21] = biological target: RAF proto-oncogene serine/threonine-protein kinase (Homo sapiens, UniProt P04049); experiment: Inhibition of human c-RAF using MEK1 as substrate in presence of [33P]ATP by Hotspot assay
[22] = tested on: RXF 393; experiment: Growth inhibition of human RXF393 cells assessed as cell growth at 0.01 uM incubated for 48 hrs by sulforhodamine B assay relative to control; format: functional; details: RXF 393, 48 h, read-out: Activity
[23] = tested on: HCT-116; experiment: Growth inhibition of human HCT116 cells assessed as cell growth at 1 uM incubated for 48 hrs by sulforhodamine B assay relative to control; format: functional; details: HCT-116, 48 h, read-out: Activity
[24] = tested on: UACC-62; experiment: Growth inhibition of human UACC62 cells assessed as cell growth at 1 uM incubated for 48 hrs by sulforhodamine B assay relative to control; format: functional; details: UACC-62, 48 h, read-out: Activity
[25] = tested on: SR; experiment: Growth inhibition of human SR cells assessed as cell growth at 10 uM incubated for 48 hrs by sulforhodamine B assay relative to control; format: functional; details: read-out: Activity
[26] = tested on: SW-620; experiment: Growth inhibition of human SW620 cells assessed as cell growth at 10 uM incubated for 48 hrs by sulforhodamine B assay relative to control; format: functional; details: SW-620, 48 h, read-out: Activity
[27] = tested on: LOX IMVI; experiment: Growth inhibition of human LOXIMVI cells assessed as cell growth at 10 uM incubated for 48 hrs by sulforhodamine B assay relative to control; format: functional; details: read-out: Activity
[28] = tested on: IGROV-1; experiment: Growth inhibition of human IGROV1 cells assessed as cell growth at 100 uM incubated for 48 hrs by sulforhodamine B assay relative to control; format: functional; details: IGROV-1, 48 h, read-out: Activity
[29] = tested on: BT-549; experiment: Growth inhibition of human BT549 cells assessed as cell growth at 100 uM incubated for 48 hrs by sulforhodamine B assay relative to control; format: functional; details: BT-549, 48 h, read-out: Activity

Sequence of RAF proto-oncogene serine/threonine-protein kinase (P04049 whole entry): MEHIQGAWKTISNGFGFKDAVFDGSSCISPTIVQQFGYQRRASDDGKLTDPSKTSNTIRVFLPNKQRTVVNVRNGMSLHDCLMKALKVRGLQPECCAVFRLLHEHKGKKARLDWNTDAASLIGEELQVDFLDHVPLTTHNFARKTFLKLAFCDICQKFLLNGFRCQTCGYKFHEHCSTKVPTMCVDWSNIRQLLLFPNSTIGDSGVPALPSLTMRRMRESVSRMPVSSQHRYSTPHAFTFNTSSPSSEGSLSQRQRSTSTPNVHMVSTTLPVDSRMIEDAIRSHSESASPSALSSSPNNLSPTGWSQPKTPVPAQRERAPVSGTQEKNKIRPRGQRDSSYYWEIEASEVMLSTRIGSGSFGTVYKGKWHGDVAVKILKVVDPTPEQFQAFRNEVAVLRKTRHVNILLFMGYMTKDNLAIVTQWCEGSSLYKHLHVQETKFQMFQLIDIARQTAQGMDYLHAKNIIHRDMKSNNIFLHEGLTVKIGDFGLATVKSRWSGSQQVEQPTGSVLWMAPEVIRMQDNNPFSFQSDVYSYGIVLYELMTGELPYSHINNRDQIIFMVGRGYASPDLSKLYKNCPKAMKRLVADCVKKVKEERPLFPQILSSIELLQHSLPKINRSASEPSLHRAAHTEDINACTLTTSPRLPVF

COc1cc2cc(Oc3ccc(NC(=O)Nc4cc(C(F)(F)F)cc(C(F)(F)F)c4)cc3)c(C)nc2cc1OC was tested, and the GI50 [1] was 0.41 to 0.46 µM, the LC50 (lethal concentration, 50% cell kill) [1] was over 100 µM and the TGI [1] was 5.51 µM. The GI50 [2] was 1.42 µM, the TGI [2] was 4.75 µM and the CC50 [2] was 22.5 µM. For the same compound, the GI50 [3] was 0.589 to 0.59 µM, the LC50 (50% lethal concentration) [3] was 5.16 µM and the TGI [3] was 1.92 µM. The GI50 [4] was 1.62 µM, the LC50 (50% lethal concentration) [4] was 8.37 µM and the TGI [4] was 3.68 µM. For the same compound, the GI50 [5] was 0.48 to 0.481 µM, the TGI [5] was 1.94 µM and the CC50 [5] was 5.71 µM. It also gave a GI50 [6] of 0.65 to 0.654 µM, a TGI [6] of 2.16 µM and a CC50 [6] of 5.73 µM. For the same compound, the GI50 [7] was 1.08 µM, the TGI [7] was 2.47 µM and the CC50 [7] was 5.61 µM. The GI50 [8] was 1.1 µM, the TGI [8] was 3.46 µM and the CC50 [8] was 13.6 µM. It also gave a GI50 [9] of 1.19 µM, a TGI [9] of 3.09 µM and a CC50 [9] of 8.03 µM. It also gave a GI50 [10] of 1.62 µM, a TGI [10] of 3.28 µM and a CC50 [10] of 6.67 µM. The GI50 [11] was 2.48 µM, the TGI [11] was 5.49 µM and the CC50 [11] was 20 µM. The GI50 [12] was 0.488 to 0.49 µM, the TGI [12] was 1.7 µM and the CC50 [12] was 4.52 µM. It also gave a GI50 [13] of 1.93 µM, a TGI [13] of 4.14 µM and a CC50 [13] of 8.88 µM. For the same compound, the GI50 [14] was 1.27 µM, the TGI [14] was 3.44 µM and the CC50 [14] was 7.04 µM. It also gave a GI50 [15] of 1.71 µM, a TGI [15] of 3.47 µM and a CC50 [15] of 5.91 µM. The GI50 [16] was 1.41 µM, the TGI [16] was 5.1 µM and the CC50 [16] was 15.3 µM. For the same compound, the GI50 [17] was 2.38 µM, the TGI [17] was 9.36 µM and the CC50 [17] was 8.06 µM. The GI50 [18] was 0.54 µM, the TGI [18] was 2.36 µM and the CC50 [18] was 5.75 µM. The GI50 [19] was 1.08 µM, the TGI [19] was 2.49 µM and the CC50 [19] was over 100 µM. The GI50 [20] was 2.65 µM, the TGI [20] was 6.94 µM and the CC50 [20] was 8.07 µM. For the same compound, the IC50 [21] was 0.37 µM, the growth at 0.01 µM [22] was 100% and the growth at 1 µM [23] was 33%. For the same compound, the growth at 1 µM [24] was 35%, the growth at 10 µM [25] was -20% and the growth at 10 µM [26] was -26%. For the same compound, the growth at 10 µM [27] was -84%, the growth at 100 µM [28] was -63% and the growth at 100 µM [29] was -61%.

COc1cc2cc(Oc3ccc(NC(=O)Nc4ccc(Cl)c(Cl)c4)cc3)c(C)nc2cc1OC gave a GI50 [1] of 1.62 µM, an LC50 (lethal concentration, 50% cell kill) [1] of over 100 µM and a TGI [1] of 5.73 µM. The GI50 [2] was 1.64 µM, the TGI [2] was 7.61 µM and the CC50 [2] was 28.3 µM. The GI50 [3] was 2.26 µM, the LC50 (50% lethal concentration) [3] was 32.6 µM and the TGI [3] was 10.5 µM. It also gave a GI50 [4] of 8.23 µM, an LC50 (50% lethal concentration) [4] of over 100 µM and a TGI [4] of over 100 µM. The GI50 [5] was 1.96 µM, the TGI [5] was 6.08 µM and the CC50 [5] was 67.7 µM. For the same compound, the GI50 [6] was 4.26 µM, the TGI [6] was 24 µM and the CC50 [6] was over 100 µM. It also gave a GI50 [7] of 2.19 µM, a TGI [7] of 7.26 µM and a CC50 [7] of 26.5 µM. The GI50 [8] was 3.02 µM, the TGI [8] was 7.72 µM and the CC50 [8] was 26.7 µM. For the same compound, the GI50 [9] was 3.77 µM, the TGI [9] was 14.7 µM and the CC50 [9] was 51.2 µM. It also gave a GI50 [10] of 2.58 µM, a TGI [10] of 8.09 µM and a CC50 [10] of 30.8 µM. It also gave a GI50 [11] of 2.31 µM, a TGI [11] of 6.28 µM and a CC50 [11] of 24.4 µM. For the same compound, the GI50 [12] was 2.34 µM, the TGI [12] was 6.19 µM and the CC50 [12] was 22.2 µM. The GI50 [13] was 10.1 µM, the TGI [13] was 34.3 µM and the CC50 [13] was over 100 µM. It also gave a GI50 [14] of 2.6 µM, a TGI [14] of 16.9 µM and a CC50 [14] of over 100 µM. For the same compound, the GI50 [15] was 7.56 µM, the TGI [15] was 26.4 µM and the CC50 [15] was 84.8 µM. It also gave a GI50 [16] of 2.12 µM, a TGI [16] of 6.65 µM and a CC50 [16] of 49.5 µM. It also gave a GI50 [17] of 4.27 µM, a TGI [17] of 17.1 µM and a CC50 [17] of 68.4 µM. The GI50 [18] was 2.89 µM, the TGI [18] was 13.8 µM and the CC50 [18] was over 100 µM. It also gave a GI50 [19] of 2.46 µM, a TGI [19] of 12 µM and a CC50 [19] of 34.6 µM. The GI50 [20] was 3.53 µM, the TGI [20] was 9.68 µM and the CC50 [20] was over 100 µM. For the same compound, the IC50 [21] was 0.22 µM, the growth at 0.01 µM [22] was 106% and the growth at 1 µM [23] was 76%. The growth at 1 µM [24] was 77%, the growth at 10 µM [25] was 1% and the growth at 10 µM [26] was 16%. For the same compound, the growth at 10 µM [27] was 20%, the growth at 100 µM [28] was -15% and the growth at 100 µM [29] was -72%.
